Laboratory results published in US10703798B2, “Methods of cancer therapy by inhibiting fusion polypeptides comprising fibroblast growth factor receptor 2 (FGFR2) and vinculin (VCL)” (DEBIOPHARM INTERNATIONAL SA, priority 2014, dated 2020).
“Also recorded” adds a separate entry of the source. Where two headings read alike, the source gives them in different places.

What was measured:
Rat2-FGFR2-VCL tumor = experiment: In vivo sensitivity, subcutaneously implanted Rat2-FGFR2-VCL tumor model; parameters: species or system female NMRI nude mice
Protocol: On Day 0, 1×10^6 FGFR2-VCL expressing Rat2 cells in 100 μl PBS were subcutaneously implanted into the left flank of 5-6 week-old female NMRI nude mice (group size of 6 animals).
Primary tumor sizes were measured twice weekly by calipering. Animals were terminated on last day of treatment and tumors weighed at necropsy.

Rat2-FGFR2-CCDC147 tumor = experiment: In vivo sensitivity, subcutaneously implanted Rat2-FGFR2-CCDC147 tumor model; parameters: species or system female NMRI nude mice; settings: 30 and 60 mg/kg orally once daily for 14 consecutive days
Protocol: On Day 0, 5×10^6 FGFR2-CCDC147-expressing Rat2 cells in 100 μl PBS were subcutaneously implanted into the left flank of 5-6 week-old female NMRI nude mice (group size of 6 animals). […] Primary tumor sizes were measured twice weekly by calipering. Animals were terminated on last day of treatment and tumors weighed at necropsy.

[1] = test system: FGFR2-CCDC147 expressing Rat2 cells; experiment: Cell proliferation assay using FACS, FGFR2-CCDC147 expressing cells; format: cell-based, rat; settings: 72 h with inhibitor, cells counted by FACS, read-out: Relative IC50
Protocol: (§1) At the end of the incubation period, cells were counted by FACS. IC50 values were calculated in Graphpad Prism 6 using sigmoidal response (variable slope) curve fit.

[2] = test system: FGFR2-VCL expressing Rat2 cells; experiment: Cell proliferation assay using FACS, FGFR2-VCL expressing cells; format: cell-based, rat; settings: 72 h with inhibitor, cells counted by FACS, read-out: Relative IC50
Protocol: as §1

Rat2 parental cells [3] = experiment: Cell proliferation assay using FACS, parental cells; format: cell-based, rat; settings: 72 h with inhibitor, cells counted by FACS, read-out: Relative IC50
Protocol: (§2) Stable Rat2 cell pools stably expressing FGFR2-CCDC147 or FGFR2-VCL fusions, respectively, were generated using pExoIN2-based expression plasmids ExoIN2-FGFR2_CCDC147 and pExoIN2-FGFR2_VCL. pExoIN2 was obtained from Trenzyme, (Germany). The latter expression plasmids were introduced into Rat2 cells by electroporation (LONZA Nucleofector II Device/program [X-005], Solution R). 24 h post-transduction, cells were subjected to 1.5 µg/mL puromycin to derive stable expressor cell pools. The FGFR2-CCDC147 sequence used in this example was composed of SEQ ID NO: 16 for the FGFR2 part (nucleic acid 1 to nucleic acid 2574) and SEQ ID NO: 20 for the CCDC147 part (nucleic acid 156 to nucleic acid 3313). The FGFR2-VCL sequence used was composed of SEQ ID NO: 16 for the FGFR2 part (nucleic acid 1 to nucleic acid 2574) and SEQ ID NO: 18 for the VCL part (nucleic acid 2117 to nucleic acid 5482).

[4] = test system: FGFR2-VCL expressing Rat2 cells; experiment: Cell proliferation assay using Cell Titer Glo, FGFR2-VCL expressing cells; format: cell-based, rat; settings: 72 h with inhibitor, cellular ATP content (Cell Titer Glo), read-out: Relative IC50
Protocol: as §2
(§3) Rat2 cells obtained as per Example 4 (either parental cells or cells expressing FGFR2-VCL or FGFR2-CCDC147 fusion polypeptide) were used in this assay. Cells were seeded in 96 well plates and cultured for 24 h before addition of FGFR inhibitors (the same as in section (1) above). After 72 h of further incubation, cell growth was analyzed by determination of the cellular ATP content (Cell Titer Glo; Promega) using a luminescence plate reader.

Rat2 parental cells [5] = settings: read-out: Relative IC50, 72 h with inhibitor, cellular ATP content (Cell Titer Glo)
Protocol: as §2, §3

[6] = test system: FGFR2-CCDC147 expressing Rat2 cells; experiment: Cell proliferation assay using Cell Titer Glo, FGFR2-CCDC147 expressing cells; format: cell-based, rat; settings: 72 h with inhibitor, cellular ATP content (Cell Titer Glo), read-out: Relative IC50
Protocol: as §2, §3

[7] = biological target: T1, FGFR2-CCDC147 fusion polypeptide (Homo sapiens, UniProt P21802); experiment: Autophosphorylation of FGFR2-CCDC147 in transiently transfected HEK293T cells, sandwich phosphotyrosine ELISA; format: cell-based; settings: FGFR2-CCDC147-expressing HEK293T cells, 1E-05 M, 90 min
T1 construct: CCDC147 (CFAP58) polypeptide part (fusion partner, same polypeptide); expressed in transfected cells; host or cells: HEK293T; the other entry of the earlier key: CFAP58 (Q5T655, Cilia- and flagella-associated protein 58)
T1 sequence (P21802 with tags, fused parts or gaps): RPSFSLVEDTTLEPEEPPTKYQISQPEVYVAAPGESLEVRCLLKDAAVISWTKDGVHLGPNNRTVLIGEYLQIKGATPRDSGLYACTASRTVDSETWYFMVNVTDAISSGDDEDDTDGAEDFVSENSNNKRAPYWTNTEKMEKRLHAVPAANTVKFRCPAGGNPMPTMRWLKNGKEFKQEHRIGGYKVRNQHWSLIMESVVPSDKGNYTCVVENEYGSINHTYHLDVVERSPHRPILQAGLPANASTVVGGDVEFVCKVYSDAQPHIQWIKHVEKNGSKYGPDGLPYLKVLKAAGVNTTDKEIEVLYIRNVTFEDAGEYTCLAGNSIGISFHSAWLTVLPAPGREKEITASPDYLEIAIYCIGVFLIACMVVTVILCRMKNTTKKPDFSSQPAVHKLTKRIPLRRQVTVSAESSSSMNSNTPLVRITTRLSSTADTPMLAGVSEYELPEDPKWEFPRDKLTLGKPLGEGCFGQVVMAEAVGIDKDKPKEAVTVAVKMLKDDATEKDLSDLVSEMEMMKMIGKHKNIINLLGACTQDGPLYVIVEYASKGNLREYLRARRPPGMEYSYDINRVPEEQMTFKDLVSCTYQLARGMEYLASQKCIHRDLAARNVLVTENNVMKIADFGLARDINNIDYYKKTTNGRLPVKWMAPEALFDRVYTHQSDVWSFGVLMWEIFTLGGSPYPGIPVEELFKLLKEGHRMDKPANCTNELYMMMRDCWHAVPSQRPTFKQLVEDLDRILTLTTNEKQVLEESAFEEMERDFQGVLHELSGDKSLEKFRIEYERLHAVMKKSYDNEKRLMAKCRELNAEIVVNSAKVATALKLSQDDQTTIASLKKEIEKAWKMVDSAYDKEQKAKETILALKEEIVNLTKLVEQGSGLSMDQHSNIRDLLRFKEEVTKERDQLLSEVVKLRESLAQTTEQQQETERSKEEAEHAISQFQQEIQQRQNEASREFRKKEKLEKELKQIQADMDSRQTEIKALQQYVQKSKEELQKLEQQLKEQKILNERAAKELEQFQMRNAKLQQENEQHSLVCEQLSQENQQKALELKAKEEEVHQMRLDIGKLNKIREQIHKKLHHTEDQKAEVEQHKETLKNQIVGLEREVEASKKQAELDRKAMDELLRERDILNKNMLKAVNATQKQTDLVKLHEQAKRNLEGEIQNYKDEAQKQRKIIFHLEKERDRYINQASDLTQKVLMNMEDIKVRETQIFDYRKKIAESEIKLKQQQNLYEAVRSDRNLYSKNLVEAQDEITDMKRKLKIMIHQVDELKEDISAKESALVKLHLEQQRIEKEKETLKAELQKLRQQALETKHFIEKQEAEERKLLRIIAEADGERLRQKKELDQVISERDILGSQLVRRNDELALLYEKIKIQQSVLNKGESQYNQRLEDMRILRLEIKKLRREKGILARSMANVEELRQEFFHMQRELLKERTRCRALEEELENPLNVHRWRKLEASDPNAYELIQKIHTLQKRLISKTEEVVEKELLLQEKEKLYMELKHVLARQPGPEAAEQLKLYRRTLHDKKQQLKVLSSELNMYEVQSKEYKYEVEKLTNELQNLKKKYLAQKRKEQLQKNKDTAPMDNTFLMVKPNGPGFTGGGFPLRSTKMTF
Text: (§4) In this example, the following sequences were used: the FGFR2-CCDC147 fusion gene was composed of SEQ ID NO: 16 for the FGFR2 part (nucleic acid 1 to nucleic acid 2574) and SEQ ID NO: 20 for the CCDC147 part (nucleic acid 156 to nucleic acid 3313); and the FGFR2-VCL fusion gene was composed of SEQ ID NO: 16 for the FGFR2 part (nucleic acid 1 to nucleic acid 2574) and SEQ ID NO: 18 for the VCL part (nucleic acid 2117 to nucleic acid 5482).
(§5) After treatment, autophosphorylation of the FGFR2 fusion polypeptides was analysed using a sandwich phosphotyrosine ELISA. Each condition was done in duplicates.

[8] = biological target: T2, FGFR2-VCL fusion polypeptide (Homo sapiens, UniProt P21802); experiment: Autophosphorylation of FGFR2-VCL in transiently transfected HEK293T cells, Western blot; format: cell-based; settings: FGFR2-VCL-expressing HEK293T cells, 1E-05 M, 90 min
T2 construct: VCL polypeptide part (fusion partner, same polypeptide); expressed in transfected cells; host or cells: HEK293T; the other entry of the earlier key: VCL (P18206, Vinculin)
T2 sequence (P21802 with tags, fused parts or gaps): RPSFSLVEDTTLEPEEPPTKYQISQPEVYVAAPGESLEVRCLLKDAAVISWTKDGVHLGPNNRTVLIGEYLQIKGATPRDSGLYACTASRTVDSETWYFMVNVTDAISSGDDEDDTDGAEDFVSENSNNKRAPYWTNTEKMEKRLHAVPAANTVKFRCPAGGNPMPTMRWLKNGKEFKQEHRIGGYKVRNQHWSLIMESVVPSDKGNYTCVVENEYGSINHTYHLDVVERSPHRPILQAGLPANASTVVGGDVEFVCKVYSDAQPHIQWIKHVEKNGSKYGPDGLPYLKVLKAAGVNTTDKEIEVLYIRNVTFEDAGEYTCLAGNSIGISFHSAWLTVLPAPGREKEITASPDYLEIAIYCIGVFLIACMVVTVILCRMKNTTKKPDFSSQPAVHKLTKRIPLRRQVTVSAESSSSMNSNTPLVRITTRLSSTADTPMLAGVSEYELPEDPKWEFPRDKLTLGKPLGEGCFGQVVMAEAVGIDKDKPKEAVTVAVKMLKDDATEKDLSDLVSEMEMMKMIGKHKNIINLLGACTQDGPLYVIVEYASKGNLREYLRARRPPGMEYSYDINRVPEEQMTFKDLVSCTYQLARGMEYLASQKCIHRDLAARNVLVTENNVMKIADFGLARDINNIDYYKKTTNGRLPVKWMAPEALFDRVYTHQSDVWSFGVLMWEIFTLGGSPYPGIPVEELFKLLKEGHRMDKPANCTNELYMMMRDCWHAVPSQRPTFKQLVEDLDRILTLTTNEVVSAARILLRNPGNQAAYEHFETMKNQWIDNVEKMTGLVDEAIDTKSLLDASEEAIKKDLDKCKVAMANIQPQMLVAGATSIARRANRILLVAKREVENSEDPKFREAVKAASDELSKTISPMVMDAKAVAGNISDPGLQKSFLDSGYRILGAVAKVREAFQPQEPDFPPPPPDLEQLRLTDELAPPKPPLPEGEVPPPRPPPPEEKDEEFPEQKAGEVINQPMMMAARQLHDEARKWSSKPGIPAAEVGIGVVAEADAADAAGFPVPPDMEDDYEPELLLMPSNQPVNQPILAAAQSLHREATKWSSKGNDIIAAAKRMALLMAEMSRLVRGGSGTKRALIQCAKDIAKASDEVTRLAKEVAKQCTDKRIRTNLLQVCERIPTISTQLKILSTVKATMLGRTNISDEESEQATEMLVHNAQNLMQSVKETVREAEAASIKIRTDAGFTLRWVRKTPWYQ
Text: as §4
(§6) HEK293T cells were transiently transfected with expression plasmids containing either an FGFR2-VCL or an FGFR2-CCDC147 fusion gene, which genes had been supplemented with a C-terminal double myc-tag extension. As a negative control, HEK293T cells were mock-transfected. […] The expression of myc-tagged fusion polypeptide was determined using the anti-myc antibody 9E10 (α-myc), and the phosphorylation analysis was performed with the anti-phospho-tyrosine antibody pY99 (α-pY).

[9] = biological target: T1, FGFR2-CCDC147 fusion polypeptide; experiment: Autophosphorylation of FGFR2-CCDC147 in transiently transfected HEK293T cells, Western blot; format: cell-based; settings: FGFR2-CCDC147-expressing HEK293T cells, 1E-05 M, 90 min
Text: as §4, §6

[10] = biological target: T2, FGFR2-VCL fusion polypeptide; experiment: Autophosphorylation of FGFR2-VCL in transiently transfected HEK293T cells, sandwich phosphotyrosine ELISA; format: cell-based; settings: FGFR2-VCL-expressing HEK293T cells, 1E-05 M, 90 min
Text: as §4, §5

Structure (SMILES)	antitumor efficacy (tumor growth) (Rat2-FGFR2-VCL tumor; 60 mg/kg-treated group, orally once daily for 14 consecutive days)	antitumor efficacy (tumor growth) (Rat2-FGFR2-VCL tumor; 30 and 60 mg/kg orally once daily for 14 consecutive days, established tumors)	effect on body weight (Rat2-FGFR2-VCL tumor; 30 or 60 mg/kg orally once daily for 14 consecutive days)	effect on body weight (Rat2-FGFR2-CCDC147 tumor)	antitumor efficacy (tumor growth) (Rat2-FGFR2-CCDC147 tumor; established tumors)	IC50 [1] [nM]	IC50 [2] [nM]	IC50 (Rat2 parental cells [3]) [nM]	IC50 [4] [nM]	IC50 (Rat2 parental cells [5]) [nM]	IC50 [6] [nM]	levels of FGFR phosphorylation (phosphotyrosine ELISA) [7]	autophosphorylation of fusion polypeptide (anti-phospho-tyrosine Western blot) [8]	autophosphorylation of fusion polypeptide (anti-phospho-tyrosine Western blot) [9]	levels of FGFR phosphorylation (phosphotyrosine ELISA) [10]
Cc1nc2cc(-n3ncc(C(=O)c4cc5ccccc5[nH]4)c3N)ccc2[nH]1 [Compound A]	Tumor stasis	inhibited tumor growth; also recorded: highly significant and dose-dependent antitumoral efficacy	without significantly affecting body weight	no significant effect	inhibited tumor growth; also recorded: highly significant antitumoral efficacy	14.7	227	> 1020	0.53	> 3000	73.4	–	–	–	–
COC(=O)c1ccc2c(c1)NC(=O)/C2=C(\Nc1ccc(N(C)C(=O)CN2CCN(C)CC2)cc1)c1ccccc1 [Vargatef]	–	–	–	–	–	–	–	–	–	–	–	decreased	substantially reduced	somewhat more marginally	decreased
